SMILES strings stand for the structures.

The target in the test is human TRPA1 (Homo sapiens (Human), UniProt O75762). Description: Measurement of TRPA1 antagonist activity (1): intracellular calcium increase. Particulars: 293T cells transfected with human TRPA1 expression plasmid; allylisothiocyanate 20 μM stimulation; intracellular calcium fluorescence; read-out: hTRPA1 IC50. The class given is cell-based. The text has this: Measurement of TRPA1 Antagonist Activity (1)
Sequence of human TRPA1 (O75762 whole entry): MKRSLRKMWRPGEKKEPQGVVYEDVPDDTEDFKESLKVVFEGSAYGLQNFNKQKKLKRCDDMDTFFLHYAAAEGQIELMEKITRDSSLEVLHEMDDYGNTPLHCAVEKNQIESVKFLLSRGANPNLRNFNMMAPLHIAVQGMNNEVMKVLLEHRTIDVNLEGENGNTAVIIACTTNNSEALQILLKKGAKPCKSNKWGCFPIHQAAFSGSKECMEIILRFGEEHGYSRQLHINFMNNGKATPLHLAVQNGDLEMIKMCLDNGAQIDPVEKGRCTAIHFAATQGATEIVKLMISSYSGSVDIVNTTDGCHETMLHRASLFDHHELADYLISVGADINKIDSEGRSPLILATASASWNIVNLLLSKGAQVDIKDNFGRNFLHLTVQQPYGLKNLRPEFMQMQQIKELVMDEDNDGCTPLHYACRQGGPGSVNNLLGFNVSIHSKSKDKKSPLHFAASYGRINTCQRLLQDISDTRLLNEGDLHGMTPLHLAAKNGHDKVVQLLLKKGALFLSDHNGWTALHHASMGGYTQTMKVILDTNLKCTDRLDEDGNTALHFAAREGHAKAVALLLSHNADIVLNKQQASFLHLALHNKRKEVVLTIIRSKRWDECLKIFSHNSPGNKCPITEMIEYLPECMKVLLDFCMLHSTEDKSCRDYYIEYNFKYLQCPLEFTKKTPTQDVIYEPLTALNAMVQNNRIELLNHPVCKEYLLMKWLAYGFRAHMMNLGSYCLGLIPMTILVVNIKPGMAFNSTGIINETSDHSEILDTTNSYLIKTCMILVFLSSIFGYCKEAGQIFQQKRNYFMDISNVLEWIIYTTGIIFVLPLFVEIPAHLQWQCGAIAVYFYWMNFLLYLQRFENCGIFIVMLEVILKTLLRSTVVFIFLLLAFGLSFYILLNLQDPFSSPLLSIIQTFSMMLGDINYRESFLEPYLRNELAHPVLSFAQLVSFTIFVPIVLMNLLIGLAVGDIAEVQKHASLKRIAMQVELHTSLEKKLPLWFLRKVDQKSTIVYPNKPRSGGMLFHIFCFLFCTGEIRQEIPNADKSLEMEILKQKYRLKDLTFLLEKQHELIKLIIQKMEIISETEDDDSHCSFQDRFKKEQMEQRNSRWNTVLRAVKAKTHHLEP
Human TRPA1 Expression Plasmid
As cDNA encoding human TRPA1 (GenBank accession No. […]), a commercially available product was purchased (manufactured by Kazusa DNA Research Institute, clone No.: pFN21AB7348, item No.: FHC07217). Using this as a template, full-length human TRPA1 gene was amplified using the primer sequences shown below, by reaction using DNA polymerase (manufactured by Stratagene, trade name: PfuUltra High-Fidelity DNA Polymerase).
A recognition site (underlined) of restriction enzyme HindIII was added to the 5′ side, and XbaI site (underlined) was added to the 3′ side, and GTT of the template sequence was changed to termination codon TAG (bold). The obtained double stranded DNA was enzyme-digested with HindIII and XbaI, and introduced into the multicloning site of expression plasmid pcDNA3.1/zeo(+) (manufactured by Invitrogen) to construct a human TRPA1 expression plasmid.
Human embryonic kidney-derived 293T cells were cultured in Dulbecco's Modified Eagle Medium containing 10% fetal bovine serum, 10 unit penicillin, and 10 μg streptomycin, plated on a petri dish having a diameter of 10 cm at 3×10^6 cells, and cultured for 24 hr in a CO2 incubator. A reduced serum medium (manufactured by Invitrogen, trade name: OPTI-MEM, 600 μL), a gene transfer reagent (manufactured by Mirus Bio, trade name: Mirus TransIT-293, 18 μL), and human TRPA1 expression plasmid (6 μg) were mixed, the total amount of the mixture was added to the cells on the petri dish to allow for gene transfer. The cells were recovered about for 8 hr later, plated on a poly-D-lysine coated 384 well black/clear bottom plate at 12,000 cells/well, and cultured overnight.
Measurement of Intracellular Calcium Increase
The 384 well plate was recovered, and the medium was removed. A calcium-bonded fluorescent indicator (manufactured by Molecular Device, trade name: Calcium4 Assay Kit, 38 μL) dissolved in assay buffer (1×HBSS, 20 mM HEPES, pH 7.2) was added, and the cells were stained in a CO2 incubator for 1 hr. The cells were taken out at room temperature, stood for not less than 15 min, a test substance (10 μL) was added by a platereader FDSS7000 (Hamamatsu Photonics K.K.) equipped with a 384ch dispenser. After 10 min, allylisothiocyanate (12 μL) was further added at a final concentration of 20 μM, and changes in the relative fluorescence intensity after addition of allylisothiocyanate were measured for 5 min.
Test Substance Preparation
The test substance was dissolved in dimethyl sulfoxide and serially diluted with an assay buffer containing 0.1% bovine serum albumin (1×HBSS, 20 mM HEPES, pH 7.2) to a 4.8-fold concentration of the evaluation concentration. Allylisothiocyanate, which is a known TRPA1 activator, was dissolved in dimethyl sulfoxide to 100 mM, and further diluted 5-fold (100 μM) of the final concentration, like the test substance.
Calculation of Antagonist Activity
Under the test substance-free conditions, the maximum variation range of the fluorescence intensity before and after allylisothiocyanate stimulation was defined to be 100% activity rate, and the variation range before and after buffer stimulation was defined as 0% activity rate. The activity rate on addition of the test substance was determined, and the numerical value obtained by subtracting the activity rate from 100 was defined to be an inhibitory rate. IC50, which is the concentration of the test substance necessary for reaching the 50% inhibitory rate, was calculated from the sigmoid approximate curve by a spreadsheet software Excel-Fit.
One may read the IC50 as the midpoint of a concentration-inhibition curve. Turning to `C[C@H](NS(=O)(=O)c1cc2cc(F)ccc2o1)C(=O)NCc1cncc(-c2ccc(C(F)(F)F)cn2)c1` [Example 246, (2S)-2-[(5-fluorobenzofuran-2-yl)sulfonylamino]-N-[[5-[5-(trifluoromethyl)-2-pyridyl]-3-pyridyl]methyl]propanamide], the IC50 was determined as 110 nM.
With `C[C@H](NS(=O)(=O)c1cc2ccccc2o1)C(=O)NCc1ccnc(-c2ccc(C(F)(F)F)cc2O)c1` [Example 180, (2S)-2-(benzofuran-2-ylsulfonylamino)-N-[[2-[2-hydroxy-4-(trifluoromethyl)phenyl]-4-pyridyl]methyl]propanamide], the IC50 was determined as 69 nM.
As to `O=C(NCc1ccnc(-c2ccc(F)cc2O)c1)[C@@H]1CCCN1S(=O)(=O)c1cc2ccccc2o1` [Example 121, (2S)-1-(benzofuran-2-ylsulfonyl)-N-[[2-(4-fluoro-2-hydroxy-phenyl)-4-pyridyl]methyl]pyrrolidine-2-carboxamide], the IC50 is 32 nM.
Under `O=C(NCc1cc(-c2ccc(C(F)(F)F)cn2)ccn1)[C@@H]1[C@H]2CC[C@H](C2)N1S(=O)(=O)c1cc2cc(F)ccc2o1` [Example 262, (1S,2S,4R)-3-(5-fluorobenzofuran-2-yl)sulfonyl-N-[[4-[5-(trifluoromethyl)-2-pyridyl]-2-pyridyl]methyl]-3-azabicyclo[2.2.1]heptane-2-carboxamide] stands 2.3 nM.
For the compound `CNc1ccc(-c2ccc(F)c(CNC(=O)[C@@H]3CCCN3S(=O)(=O)c3cc4ccccc4o3)c2)cn1` [Example 177, (2S)-1-(benzofuran-2-ylsulfonyl)-N-[[2-fluoro-5-[6-(methylamino)-3-pyridyl]phenyl]methyl]pyrrolidine-2-carboxamide], the IC50 stood at 300 nM.
As for `O=C(NCc1cc(-c2ccc(C(F)(F)F)cc2)ccn1)[C@@H]1CCCN1S(=O)(=O)c1cc2cc(F)ccc2o1` [Example 148, (2S)-1-(5-fluorobenzofuran-2-yl)sulfonyl-N-[[4-[4-(trifluoromethyl)phenyl]-2-pyridyl]methyl]pyrrolidine-2-carboxamide], the IC50 is 2.2 nM.
Consider `O=C(NCc1cccc(OCc2ccc(C(F)(F)F)cc2)c1)[C@@H]1C[C@@H](O)CN1S(=O)(=O)c1cc2ccccc2o1` [Example 46, (2S,4R)-1-(benzofuran-2-ylsulfonyl)-4-hydroxy-N-[[3-[[4-(trifluoromethyl)phenyl]methoxy]-phenyl]methyl]pyrrolidine-2-carboxamide], for which the IC50 stood at 130 nM.
Under `O=C(NCc1cncc(-c2ccc(OC(F)(F)F)cc2)c1)[C@@H]1CCCN1S(=O)(=O)c1cc2cc(F)ccc2o1` [Example 279, (2S)-1-(5-fluorobenzofuran-2-yl)sulfonyl-N-[[5-[4-(trifluoromethoxy)phenyl]-3-pyridyl]methyl]pyrrolidine-2-carboxamide] stands 2.8 nM; under `O=C(NCc1cccc(-c2ccc(F)cc2)c1)[C@@H]1CCCN1S(=O)(=O)c1cc2cc(F)ccc2o1` [Example 155, (2S)-1-(5-fluorobenzofuran-2-yl)sulfonyl-N-[[3-(4-fluorophenyl)phenyl]methyl]-pyrrolidine-2-carboxamide], 4 nM.
Take `N#Cc1ccc(-c2ccnc(CNC(=O)[C@@H]3CCCN3S(=O)(=O)c3cc4ccccc4o3)c2)cc1` [Example 281, (2S)-1-(benzofuran-2-ylsulfonyl)-N-[[4-(4-cyanophenyl)-2-pyridyl]methyl]pyrrolidine-2-carboxamide]: the IC50 turned out to be 22 nM.
On to `O=C(NCc1ccc(O)c(-c2cnc(C(F)(F)F)cn2)c1)[C@@H]1CCCN1S(=O)(=O)c1cc2ccccc2o1` [Example 214, (2S)-1-(benzofuran-2-ylsulfonyl)-N-[[4-hydroxy-3-[5-(trifluoromethyl)-pyrazin-2-yl]phenyl]-methyl]pyrrolidine-2-carboxamide], for which the IC50 is 13 nM.
On to `C[C@H](NS(=O)(=O)c1cc2ccccc2o1)C(=O)NCc1ccnc(-c2ccc(C(F)(F)F)cc2)c1` [Example 103, (2S)-2-(benzofuran-2-ylsulfonylamino)-N-[[2-[4-(trifluoromethyl)phenyl]-4-pyridyl]methyl]propanamide], for which the IC50 stood at 56 nM.
As for `O=C(NCc1cncc(-c2ccc(C(F)(F)F)cn2)c1)[C@@H]1CCCN1S(=O)(=O)c1cc2cc(F)ccc2o1` [Example 141, (2S)-1-(5-fluorobenzofuran-2-yl)sulfonyl-N-[[5-[5-(trifluoromethyl)-2-pyridyl]-3-pyridyl]methyl]pyrrolidine-2-carboxamide], the figure is 3.3 nM; as for `O=C(NCc1cccc(OCc2ccsc2)c1)[C@@H]1CCCN1S(=O)(=O)c1cc2ccccc2o1` [Example 6, (2S)-1-(benzofuran-2-ylsulfonyl)-N-[[3-(3-thienylmethoxy)phenyl]methyl]pyrrolidine-2-carboxamide], 7.5 nM.
As to `O=C(NCc1cccc(-c2ccc(C(F)(F)F)nc2)n1)[C@@H]1CCCN1S(=O)(=O)c1cc2cc(F)ccc2o1` [Example 145, (2S)-1-(5-fluorobenzofuran-2-yl)sulfonyl-N-[[6-[6-(trifluoromethyl)-3-pyridyl]-2-pyridyl]methyl]pyrrolidine-2-carboxamide], the IC50 turned out to be 29 nM.
As for `O=C(NCc1ccc(Oc2ccnc(C(F)(F)F)c2)cc1)[C@@H]1CCCN1S(=O)(=O)c1cc2cc(F)ccc2o1` [Example 56, (2S)-1-(5-fluorobenzofuran-2-yl)sulfonyl-N-[[4-[[2-(trifluoromethyl)-4-pyridyl]oxy]phenyl]methyl]-pyrrolidine-2-carboxamide], the figure is 21 nM.
In the case of `N#Cc1ccc(-c2ccnc(CNC(=O)[C@@H]3CCCN3S(=O)(=O)c3cc4cc(F)ccc4o3)c2)cc1` [Example 150, (2S)-N-[[4-(4-cyanophenyl)-2-pyridyl]methyl]-1-(5-fluorobenzofuran-2-yl)sulfonyl-pyrrolidine-2-carboxamide], the half-inhibitory concentration (IC50) was 13 nM.
Turning to `N#Cc1ccc(-c2cc(CNC(=O)[C@@H]3CCCN3S(=O)(=O)c3cc4ccccc4o3)ccn2)cc1F` [Example 119, (2S)-1-(benzofuran-2-ylsulfonyl)-N-[[2-(4-cyano-3-fluoro-phenyl)-4-pyridyl]methyl]pyrrolidine-2-carboxamide], the IC50 was 12 nM.
As for `O=C(NCc1cc(-c2ccc(C(F)(F)F)cn2)ncn1)[C@@H]1CCCN1S(=O)(=O)c1cc2ccccc2o1` [Example 206, (2S)-1-(benzofuran-2-ylsulfonyl)-N-[[6-[5-(trifluoromethyl)-2-pyridyl]pyrimidin-4-yl]methyl]pyrrolidine-2-carboxamide], the figure is 12 nM.
Under `O=C(NCc1ccc(-c2ccccc2C(F)(F)F)cc1)[C@@H]1CCCN1S(=O)(=O)c1cc2ccccc2o1` [Example 167, (2S)-1-(benzofuran-2-ylsulfonyl)-N-[[4-[2-(trifluoromethyl)phenyl]-phenyl]methyl]pyrrolidine-2-carboxamide] stands 140 nM; under `O=C(NCc1cc(-c2ccc(OC(F)(F)F)cc2)ccn1)[C@@H]1CCCN1S(=O)(=O)c1cc2cc(F)ccc2o1` [Example 222, (2S)-1-(5-fluorobenzofuran-2-yl)sulfonyl-N-[[4-[4-(trifluoromethoxy)phenyl]-2-pyridyl]methyl]pyrrolidine-2-carboxamide], 2.4 nM.
Regarding `C[C@H](NS(=O)(=O)c1cc2ccccc2o1)C(=O)NCc1cccc(OCc2ccc(C#N)cc2)c1` [Example 182, (2S)-2-(benzofuran-2-ylsulfonylamino)-N-[[3-[(4-cyanophenyl)methoxy]phenyl]methyl]propanamide], the IC50 came out at 94 nM.
As to `C[C@H](NS(=O)(=O)c1cc2cc(F)ccc2o1)C(=O)NCc1ccnc(-c2ccc(C(F)(F)F)cc2)c1` [Example 108, (2S)-2-[(5-fluorobenzofuran-2-yl)sulfonylamino]-N-[[2-[4-(trifluoromethyl)phenyl]-4-pyridyl]methyl]propanamide], the IC50 was 13 nM.
